# According to ChEMBL document CHEMBL4680089, “Development of Allosteric Hydrazide-Containing Class I Histone Deacetylase Inhibitors for Use in Acute Myeloid Leukemia” (J Med Chem, 2016):
# Calls of active or inactive are those of the source. No cut-off for these calls is given here.
# Tests used:
# [1] = molecular target: Histone deacetylase 3 (Homo sapiens, UniProt O15379); test: Allosteric inhibition of C-terminal His-tagged recombinant human HDAC3 expressed in Sf9 cells pre-incubated for 2 hrs before acetylated lysine-aminomethyl coumarin-BOC addition and measured after 2 hrs by fluorescence based assay
# Histone deacetylase 3, sequence (O15379 whole entry): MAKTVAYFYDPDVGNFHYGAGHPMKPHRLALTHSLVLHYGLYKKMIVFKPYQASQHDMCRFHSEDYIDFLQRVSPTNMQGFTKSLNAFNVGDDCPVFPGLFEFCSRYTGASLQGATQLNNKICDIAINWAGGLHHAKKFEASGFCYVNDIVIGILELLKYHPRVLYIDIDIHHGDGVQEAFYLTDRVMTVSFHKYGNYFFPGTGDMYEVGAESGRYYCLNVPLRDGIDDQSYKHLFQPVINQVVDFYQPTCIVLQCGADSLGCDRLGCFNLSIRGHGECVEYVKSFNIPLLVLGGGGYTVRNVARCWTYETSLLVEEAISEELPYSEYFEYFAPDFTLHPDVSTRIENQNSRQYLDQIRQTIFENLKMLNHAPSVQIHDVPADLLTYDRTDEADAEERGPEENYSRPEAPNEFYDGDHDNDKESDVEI
# [2] = tested on: MV4-11; test: cells; format: functional, cell-based; details: Homo sapiens, MV4-11, 48 h
# Description: Cytotoxicity against human MV4-11 cells assessed as reduction in cell viability incubated for 48 hrs by Cell-titer-blue cell viability assay
# [3] = tested on: HEK293; test: Cytotoxicity against HEK293 cells assessed as reduction in cell viability incubated for 48 hrs by Cell-titer-blue cell viability assay; format: cell-based; details: human, hek293, 48 h
# [4] = Drug metabolism in human liver microsomes assessed as o-glucuronidated metabolite formation in absence of UDP glucuronic acid incubated for 12 hrs at 37 degC by electrospray ionization liquid chromatography mass spectrometry; format: ADME, Microsome
# [5] = molecular target: T1, Protein deacetylase HDAC6 (Homo sapiens) (UniProt Q9UBN7); details: MV4-11, dose 100.0 nM, time 24.0 hrs
# T1 sequence (whole entry): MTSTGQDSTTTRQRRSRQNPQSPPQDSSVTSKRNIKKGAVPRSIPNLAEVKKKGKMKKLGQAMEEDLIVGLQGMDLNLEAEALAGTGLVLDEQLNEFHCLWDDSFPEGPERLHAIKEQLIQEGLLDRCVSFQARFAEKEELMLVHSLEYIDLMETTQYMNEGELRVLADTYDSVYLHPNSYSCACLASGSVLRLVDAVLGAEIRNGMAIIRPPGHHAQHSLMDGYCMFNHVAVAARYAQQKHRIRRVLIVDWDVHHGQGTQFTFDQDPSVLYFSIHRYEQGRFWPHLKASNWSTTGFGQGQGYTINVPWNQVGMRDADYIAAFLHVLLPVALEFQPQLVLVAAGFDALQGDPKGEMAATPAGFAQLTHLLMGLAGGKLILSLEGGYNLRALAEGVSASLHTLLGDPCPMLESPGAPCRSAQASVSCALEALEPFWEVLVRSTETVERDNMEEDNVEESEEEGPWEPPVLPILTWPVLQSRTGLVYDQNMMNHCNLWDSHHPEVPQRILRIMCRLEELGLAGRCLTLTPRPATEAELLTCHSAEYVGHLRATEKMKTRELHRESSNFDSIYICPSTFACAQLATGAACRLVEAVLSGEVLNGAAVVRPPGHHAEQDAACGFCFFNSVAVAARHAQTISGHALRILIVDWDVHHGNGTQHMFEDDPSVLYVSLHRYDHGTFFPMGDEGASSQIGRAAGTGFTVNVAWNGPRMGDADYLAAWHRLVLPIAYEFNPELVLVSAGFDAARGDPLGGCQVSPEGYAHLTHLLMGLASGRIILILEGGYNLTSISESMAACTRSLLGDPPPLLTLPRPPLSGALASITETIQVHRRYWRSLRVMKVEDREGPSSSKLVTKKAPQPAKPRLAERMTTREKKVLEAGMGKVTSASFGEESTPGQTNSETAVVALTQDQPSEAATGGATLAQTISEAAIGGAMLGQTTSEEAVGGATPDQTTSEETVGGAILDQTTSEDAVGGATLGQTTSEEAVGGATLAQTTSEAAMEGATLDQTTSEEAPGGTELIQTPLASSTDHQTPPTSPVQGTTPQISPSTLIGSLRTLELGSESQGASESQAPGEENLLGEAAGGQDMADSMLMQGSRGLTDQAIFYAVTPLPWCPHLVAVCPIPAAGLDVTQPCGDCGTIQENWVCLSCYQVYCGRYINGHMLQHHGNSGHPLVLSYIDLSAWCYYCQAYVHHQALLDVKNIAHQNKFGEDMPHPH
# [6] = molecular target: T2, Class 1 histone deacetylase (Homo sapiens) (UniProt Q13547+O15379+Q92769+Q9BY41); details: time 24.0 hrs
# T2 sequence (O15379 whole entry, looked up): as the sequence (O15379 whole entry) above
# T2 sequence (Q13547 whole entry, looked up): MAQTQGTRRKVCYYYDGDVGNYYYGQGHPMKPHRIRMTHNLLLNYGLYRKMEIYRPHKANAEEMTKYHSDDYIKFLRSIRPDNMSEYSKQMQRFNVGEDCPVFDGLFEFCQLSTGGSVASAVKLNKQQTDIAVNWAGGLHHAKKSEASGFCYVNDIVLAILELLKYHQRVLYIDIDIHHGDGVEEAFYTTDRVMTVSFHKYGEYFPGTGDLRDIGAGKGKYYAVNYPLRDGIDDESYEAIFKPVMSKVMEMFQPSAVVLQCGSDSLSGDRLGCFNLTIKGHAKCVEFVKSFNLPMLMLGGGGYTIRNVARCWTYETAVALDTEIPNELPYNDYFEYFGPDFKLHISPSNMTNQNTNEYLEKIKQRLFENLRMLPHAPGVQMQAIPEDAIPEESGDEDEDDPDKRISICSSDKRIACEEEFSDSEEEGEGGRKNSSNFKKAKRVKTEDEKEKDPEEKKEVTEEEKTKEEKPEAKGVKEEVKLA
# T2 sequence (Q92769 whole entry, looked up): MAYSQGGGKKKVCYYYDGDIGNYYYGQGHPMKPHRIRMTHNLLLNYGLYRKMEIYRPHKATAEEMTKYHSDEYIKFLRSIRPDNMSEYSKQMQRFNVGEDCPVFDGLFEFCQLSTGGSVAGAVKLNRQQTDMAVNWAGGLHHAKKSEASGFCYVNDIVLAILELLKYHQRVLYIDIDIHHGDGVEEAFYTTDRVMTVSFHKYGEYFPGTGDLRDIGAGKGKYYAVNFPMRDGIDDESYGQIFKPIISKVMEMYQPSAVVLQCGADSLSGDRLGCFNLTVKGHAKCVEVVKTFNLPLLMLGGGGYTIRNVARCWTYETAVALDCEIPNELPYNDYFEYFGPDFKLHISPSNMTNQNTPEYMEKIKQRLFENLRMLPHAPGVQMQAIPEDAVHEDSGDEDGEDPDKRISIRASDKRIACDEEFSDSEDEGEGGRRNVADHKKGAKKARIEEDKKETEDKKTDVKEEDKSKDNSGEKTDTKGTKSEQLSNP
# T2 sequence (Q9BY41 whole entry, looked up): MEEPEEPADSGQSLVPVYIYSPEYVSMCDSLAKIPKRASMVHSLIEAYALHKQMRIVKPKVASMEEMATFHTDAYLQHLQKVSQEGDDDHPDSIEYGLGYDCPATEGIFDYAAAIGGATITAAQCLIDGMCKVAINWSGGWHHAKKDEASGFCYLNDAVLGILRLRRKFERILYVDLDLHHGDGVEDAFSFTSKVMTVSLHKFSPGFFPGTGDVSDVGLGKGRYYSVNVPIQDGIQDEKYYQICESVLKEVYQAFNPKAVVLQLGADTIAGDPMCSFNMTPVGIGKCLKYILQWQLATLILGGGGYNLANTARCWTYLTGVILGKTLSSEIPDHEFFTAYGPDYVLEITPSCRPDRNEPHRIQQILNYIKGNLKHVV
# [7] = molecular target: T2, Class 1 histone deacetylase (Homo sapiens); details: time 24.0 hrs; remark: listed apart in the source
# [8] = Drug metabolism in human liver microsomes assessed as o-glucuronidated metabolite formation in presence of UDP glucuronic acid incubated for 12 hrs at 37 degC by electrospray ionization liquid chromatography mass spectrometry; format: ADME, Microsome
# [9] = Cytotoxicity against human PBMC assessed as reduction in cell viability at 10 nM incubated for 24 hrs by Cell-titer-blue cell viability assay; details: 0.01 µM
# [10] = Cytotoxicity against human PBMC assessed as reduction in cell viability incubated for 24 hrs by Cell-titer-blue cell viability assay relative to panobinostat
# [11] = tested on: HL-60; test: Cytotoxicity against human HL-60 cells assessed as reduction in cell viability incubated for 48 hrs by Cell-titer-blue cell viability assay; format: functional, cell-based; details: HL-60, 48 h
# [12] = tested on: RPMI-8226; test: Cytotoxicity against human RPMI-8226 cells assessed as reduction in cell viability incubated for 48 hrs by Cell-titer-blue cell viability assay; format: functional, cell-based; details: RPMI-8226, 48 h
# [13] = Drug metabolism in human liver microsomes assessed as compound reduction in absence of UDP glucuronic acid incubated for 12 hrs at 37 degC by electrospray ionization liquid chromatography mass spectrometry; format: ADME, Microsome
# [14] = tested on: K562; test: Cytotoxicity against human K562 cells assessed as reduction in cell viability incubated for 48 hrs by Cell-titer-blue cell viability assay; format: functional, cell-based; details: K562, 48 h
# [15] = tested on: MOLM-14; test: Cytotoxicity against human MOLM-14 cells assessed as reduction in cell viability incubated for 48 hrs by Cell-titer-blue cell viability assay; format: functional, cell-based; details: MOLM-14, 48 h
# [16] = tested on: RS4-11; test: Cytotoxicity against human RS4-11 cells assessed as reduction in cell viability incubated for 48 hrs by Cell-titer-blue cell viability assay; format: functional, cell-based; details: RS4-11, 48 h
# [17] = MV4-11, filed as negative allosteric modulator, dose 100.0 nM
SMILES,IC50 [1] [nM],EC50 [2] [nM],Drug metabolism [4],inhibition [5],"inhibition [6, 17]","inhibition [7, 17]",Drug metabolism [8],Activity [3],other results
CCCCNNC(=O)c1cccc2ccccc12,> 10000,–,–,–,–,–,–,–,–
CC(C)NNC(=O)c1ccc(CNC(=O)c2ccccc2)cc1,> 10000,–,–,–,–,–,–,–,–
Nc1ccccc1NC(=O)c1ccc(CNC(=O)OCc2cccnc2)cc1 [ENTINOSTAT],–,< 30,–,–,–,–,–,–,–
O=C(CCCCCCC(=O)Nc1ccccc1)NO [VORINOSTAT],–,–,Metabolite_Notdetected,–,–,–,Metabolite_Detected,–,–
CC/C=N/NC(=O)c1ccc(CNC(=O)c2ccccc2)cc1,> 10000,–,–,–,–,–,–,–,"inhibition ([6]; MV4-11, dose 100.0 nM): inactive; inhibition ([7]; MV4-11, dose 100.0 nM): inactive"

# The next lines start with results.
IC50 [1] [nM],EC50 [2] [nM],Drug metabolism [4],inhibition [5],"inhibition [6, 17]","inhibition [7, 17]",Drug metabolism [8],SMILES,Activity [3],other results
–,–,Metabolite_Notdetected,inactive,Active,Active,Metabolite_Notdetected,CCCCNNC(=O)c1ccc(CNC(=O)c2ccccc2)cc1,Non-Toxic,–
–,< 30,–,–,–,–,–,Cc1[nH]c2ccccc2c1CCNCc1ccc(/C=C/C(=O)NO)cc1 [PANOBINOSTAT],–,Activity [9]: Toxic
–,36.4,Metabolite_Notdetected,inactive,Active,Active,Metabolite_Notdetected,CCCNNC(=O)c1ccc(CNC(=O)/C=C/c2ccccc2)cc1,Non-Toxic,Activity [10]: Non-Toxic; EC50 [11]: > 10000 nM; EC50 [12]: > 10000 nM; Drug metabolism [13]: Metabolite_Detected; EC50 [14]: 2160 nM; EC50 [15]: 76.6 nM; EC50 [16]: 152 nM
1550,–,–,–,–,–,–,C/C=C/CNNC(=O)c1ccc(CNC(=O)c2ccccc2)cc1,–,–
–,–,Metabolite_Notdetected,inactive,Active,Active,Metabolite_Notdetected,CCCNNC(=O)c1ccc(CNC(=O)c2ccccc2)cc1,Non-Toxic,Activity [10]: Non-Toxic
